Measurements reported in patent US12428415B2, “Matriptase 2 inhibitors and uses thereof” (Disc Medicine, Inc., priority 2018, dated 2025).

These compounds were tested against T1, Human Recombinant Matriptase 2 (Homo sapiens, UniProt Q8IU80) (assay: Matriptase 2 fluorescence based inhibition assay, Method B (50 mM TRIS pH 7.5, 150 mM NaCl, 0.01% gelatin)). Settings: 1 uM compound; Assay Used = B.
T1 construct: purchased Enzo Life Sciences (an in-house preparation was also used) ALX-201-752-1
T1 sequence (Q8IU80 1-811): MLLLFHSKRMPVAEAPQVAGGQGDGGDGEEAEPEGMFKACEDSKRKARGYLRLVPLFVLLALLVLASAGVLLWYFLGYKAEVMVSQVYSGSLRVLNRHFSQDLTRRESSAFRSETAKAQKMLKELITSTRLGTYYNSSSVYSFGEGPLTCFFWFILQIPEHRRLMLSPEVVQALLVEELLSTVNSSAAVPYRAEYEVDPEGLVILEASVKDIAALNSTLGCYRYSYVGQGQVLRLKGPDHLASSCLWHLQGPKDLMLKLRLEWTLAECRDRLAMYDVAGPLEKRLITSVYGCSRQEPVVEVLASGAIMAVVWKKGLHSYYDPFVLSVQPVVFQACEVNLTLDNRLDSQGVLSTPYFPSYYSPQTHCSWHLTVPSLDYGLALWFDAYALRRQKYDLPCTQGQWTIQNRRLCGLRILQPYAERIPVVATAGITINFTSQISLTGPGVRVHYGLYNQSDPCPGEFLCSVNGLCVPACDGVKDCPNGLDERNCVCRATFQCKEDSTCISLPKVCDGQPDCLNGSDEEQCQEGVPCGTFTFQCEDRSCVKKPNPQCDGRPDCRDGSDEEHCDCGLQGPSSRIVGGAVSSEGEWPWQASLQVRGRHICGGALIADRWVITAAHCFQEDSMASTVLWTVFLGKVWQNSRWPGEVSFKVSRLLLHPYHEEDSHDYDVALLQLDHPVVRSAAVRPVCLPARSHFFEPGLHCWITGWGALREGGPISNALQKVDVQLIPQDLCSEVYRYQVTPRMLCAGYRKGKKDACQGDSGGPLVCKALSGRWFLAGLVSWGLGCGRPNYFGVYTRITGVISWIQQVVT
Assay type: biochemical
How it was run: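 Fluorogenic substrate Boc-Gln-Ala-Arg-7-amido-4-methylcoumarin (100 μM) cleavage read at Ex 360/Em 480 nm 60 min after addition, following 30 min enzyme–compound preincubation at 25° C. Enzyme was 7 nM commercial or 15 nM in-house; DMSO 1%. IC50s fitted by non-linear sigmoidal regression.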

| Mar-2 % inhibition at 1 uM | SMILES |
| --- | --- |
| A (A represents 0%≤I≤25%) | CC(C)(C)OC(=O)N[C@H]1CC[C@H](NC(=O)c2cc3ccc(C(=N)N)cc3n2Cc2cccc3ccccc23)CC1 [Compound I-403] |
| A (A represents 0%≤I≤25%) | CC(C)(C)OC(=O)N[C@H]1CC[C@H](NC(=O)c2cc3ccc(C(=N)N)cc3n2Cc2ccc3ccccc3c2)CC1 [Compound I-402, tert-butyl ((1r,4r)-4-(6-carbamimidoyl-1-(naphthalen-2-ylmethyl)-1H-indole-2-carboxamido)cyclohexyl) carbamate] |
| C (C represents 50%≤I≤75%) | CNC(=O)c1cc2ccc(C(=N)N)cc2n1Cc1cccc2ccccc12 [Compound I-483] |

Same assay, conditions: 1 uM compound; Assay Used = B (Method B); read-out: Mar-2 % inhibition at 1 uM

| inhibition at 1 µM [%] | SMILES |
| --- | --- |
| 50 to 75 | Cc1nnc(-c2cc3ccc(C(=N)N)cc3n2Cc2cccc3ccccc23)o1 [Compound I-751, 2-(5-methyl-1,3,4-oxadiazol-2-yl)-1-(naphthalen-1-ylmethyl)-1H-indole-6-carboximidamide] |
| 25 to 50 | N=C(N)c1ccc2cc(C(=O)N[C@H]3CC[C@H](N)CC3)n(Cc3cnoc3-c3ccc(Cl)s3)c2c1 [Compound I-755] |
| 50 to 75 | NCc1ccc2cc(C(=O)N[C@H]3CC[C@@H](N)CC3)n(Cc3cccc4ccccc34)c2c1 [Compound I-743] |
| 0 to 25 | NC(=NO)c1ccc2cc(C(=O)O)n(Cc3cc(S(=O)(=O)c4ccccc4)cc4ccccc34)c2c1 [Compound I-659] |
| 75 to 100 | N=C(N)c1ccc2cc(C(=O)N[C@H]3CC[C@H](N)CC3)n(Cc3ccc(Br)c4ccccc34)c2c1 [Compound I-794] |
| 25 to 50 | N=C(N)c1ccc2cc(C(=O)O)n(C[C@H]3CCCc4ccccc43)c2c1 (racemic) [Compound I-613] |
| 75 to 100 | N=C(N)c1ccc2cc(C(=O)N[C@H]3CC[C@H](N)CC3)n(Cc3cc(Oc4ccccc4F)cc4ccccc34)c2c1 [Compound I-615] |
| 50 to 75 | N=C(N)c1ccc2cc(C(=O)O)n(Cc3cc(OC(F)F)cc4ccccc34)c2c1 [Compound I-648] |
| 75 to 100 | CCOC(=O)c1cc2ccc(C(=N)N)cc2n1Cc1cc(Oc2ncccn2)cc2ccccc12 [Compound I-598, Ethyl 6-carbamimidoyl-1-((3-(pyrimidin-2-yloxy)naphthalen-1-yl)methyl)-1H-indole-2-carboxylate] |
| 0 to 25 | CC(C)COC(=O)NC(=N)c1ccc2cc(C(=O)NC3CCN(C)CC3)n(Cc3cccc4ccccc34)c2c1 [Compound I-783] |
| 75 to 100 | N=C(N)c1ccc2cc(C(=O)N[C@H]3CC[C@H](N)CC3)n(Cc3cccc4c(Oc5ccccc5)cccc34)c2c1 [Compound I-731] |
| 0 to 25 | N=C(N)c1ccc2c(c1)cc(C(=O)O)n2Cc1cccc2ccccc12 [Compound I-651] |
| 0 to 25 | CC(C)COC(=O)NC(=N)c1ccc2cc(C(=O)O)n(Cc3cccc4ccccc34)c2c1 [Compound I-791] |
| 25 to 50 | N=C(N)c1ccc2cc(C(=O)O)n(Cc3cc(Oc4ccccc4)cc4ccccc34)c2n1 [Compound I-732] |
| 0 to 25 | CCOC(=O)c1cc2ccc(C(N)=NO)cc2n1Cc1cc(Oc2ccccc2)cc2ccccc12 [Compound I-663] |
| 0 to 25 | CC(=O)NC(=N)c1ccc2cc(C(=O)NC3CCN(C)CC3)n(Cc3cccc4ccccc34)c2c1 [Compound I-762, 6-(N-acetylcarbamimidoyl)-N-(1-methylpiperidin-4-yl)-1-(naphthalen-1-ylmethyl)-1H-indole-2-carboxamide] |
| 75 to 100 | N=C(N)c1ccc2cc(C(=O)O)n(Cc3cc(Oc4ccccn4)cc4ccccc34)c2c1 [Compound I-628] |
| 75 to 100 | N=C(N)c1ccc2cc(C(=O)N[C@H]3CC[C@H](N)CC3)n(Cc3cc(Oc4ccccc4)cc4ccccc34)c2c1 [Compound I-777] |
| 50 to 75 | N=C(N)c1ccc2cc(C(=O)O)n(-c3cc(CO)c4ccccc4c3)c2c1 [Compound I-677] |
| 25 to 50 | N=C(N)c1ccc2cc(C(=O)N[C@H]3CC[C@H](N)CC3)n(Cc3ccc(C(=O)N4CCCC4)c4ccccc34)c2c1 [Compound I-790] |
| 50 to 75 | CNC(=O)c1cc2ccc(C(=N)N)cc2n1Cc1cccc2ccccc12 [Compound I-609] |
| 75 to 100 | Cc1c(C(=O)N[C@H]2CC[C@H](N)CC2)n(Cc2cccc3ccccc23)c2cc(C(=N)N)ccc12 [Compound I-633] |
| 75 to 100 | N=C(N)c1ccc2cc(C(=O)N[C@H]3CC[C@H](N)CC3)n(Cc3cc(Oc4ccccc4)cc4ccccc34)c2n1 [Compound I-721] |
| 75 to 100 | Cc1cnc(-c2cc3ccc(C(=N)N)cc3n2Cc2cccc3ccccc23)[nH]1 [Compound I-714] |
| 25 to 50 | N=C(N)c1ccc2cc(C(=O)NC3CCC(N)CC3)n(Cc3ccc(C(=N)N)c4ccccc34)c2c1 (stereo not shown) [Compound I-645] |
| 75 to 100 | N=C(N)c1ccc2cc(C(=O)N[C@H]3CC[C@H](N)CC3)n(Cc3ccc(Oc4ccccc4)c4ccccc34)c2c1 [Compound I-701] |
| 0 to 25 | CCOC(=O)c1cc2ccc(C(=N)NC(=O)OCC(C)C)nc2n1Cc1cccc2ccccc12 [Compound I-676] |
| 75 to 100 | Cc1ccc(S(=O)(=O)Oc2cc(Cn3c(C(=O)O)cc4ccc(C(=N)N)cc43)c3ccccc3c2)cc1 [Compound I-647] |
| 75 to 100 | N=C(N)c1ccc2cc(C(=O)N[C@H]3CC[C@H](N)CC3)n(Cc3cccc4c(Br)cccc34)c2c1 [Compound I-792] |

Same assay, conditions: 1 uM compound; Assay Used = B; read-out: Mar-2 % inhibition at 1 uM

| inhibition at 1 µM [%] | SMILES |
| --- | --- |
| 50 to 75 | CN1CCC(COC(=O)c2cc3ccc(C(=N)N)cc3n2Cc2cc(Oc3ncccn3)cc3ccccc23)CC1 [Compound I-562] |
| 0 to 25 | CCOC(=O)c1cc2ccc(C(=N)N)cc2n1Cc1cc(Oc2ccsc2)cc2ccccc12 [Compound I-592] |
| 0 to 25 | N=C(N)c1ccc2cc(C(=O)O)n(-c3cccc4ccccc34)c2c1 [Compound I-489] |
| 50 to 75 | N=C(N)c1ccc2cc(C(=O)Nc3ncccn3)n(Cc3cccc4ccccc34)c2c1 [Compound I-573, 6-carbamimidoyl-1-(naphthalen-1-ylmethyl)-N-(pyrimidin-2-yl)-1H-indole-2-carboxamide] |
| 0 to 25 | N=C(N)c1ccc2cc(C(=O)N[C@H]3CC[C@H](N)CC3)n(CCS(=O)(=O)c3cccc4ccccc34)c2c1 [Compound I-501] |
| 25 to 50 | N=C(N)c1ccc2cc(C(=O)Nc3cccc(-c4ncc[nH]4)c3)n(Cc3cccc4ccccc34)c2c1 [Compound I-448] |
| 75 to 100 | N=C(N)c1ccc2cc(C(=O)N[C@H]3CC[C@H](N)CC3)n(Cc3cccc4ccccc34)c2c1 [Compound I-407] |
| 50 to 75 | N=C(N)c1ccc2cc(C(=O)O)n(Cc3cc(OCc4ncccn4)cc4ccccc34)c2c1 [Compound I-563] |
| 75 to 100 | CNC(=O)c1cc2ccc(C(=N)N)cc2n1Cc1cc(Oc2ncccn2)cc2ccccc12 [Compound I-578] |
| 0 to 25 | CCOC(=O)c1cc2ccc(/C(N)=N/C#N)cc2n1Cc1cc(Oc2ncccn2)cc2ccccc12 [Compound I-558, ethyl (Z)-6-(N′-cyanocarbamimidoyl)-1-((3-(pyrimidin-2-yloxy)naphthalen-1-yl)methyl)-1H-indole-2-carboxylate] |
| 75 to 100 | CN[C@H]1CC[C@H](NC(=O)c2cc3ccc(C(=N)N)cc3n2Cc2cccc3ccccc23)CC1 [Compound I-472] |
| 25 to 50 | CCNC(=N)c1ccc2cc(C(=O)N[C@H]3CC[C@H](N)CC3)n(Cc3ccc4ccccc4c3)c2c1 [Compound I-413, N-((1r,4r)-4-aminocyclohexyl)-6-(N-ethylcarbamimidoyl)-1-(naphthalen-2-ylmethyl)-1H-indole-2-carboxamide] |
| 75 to 100 | N=C(N)c1ccc2cc(C(=O)O)n(Cc3cccc4ccccc34)c2c1 [Compound I-458, 6-carbamimidoyl-1-(naphthalen-1-ylmethyl)-1H-indole-2-carboxylic Acid] |
| 0 to 25 | NCCCCNC(=O)c1cc2ccc(CN)cc2n1Cc1cccc2ccccc12 [Compound I-541] |
| 50 to 75 | N=C(N)c1ccc2cc(C(=O)N3CC[C@@H](N)C3)n(Cc3cccc4ccccc34)c2c1 [Compound I-446] |

| SMILES | inhibition at 1 µM [%] |
| --- | --- |
| N=C(N)c1ccc2c(C(=O)N[C@H]3CC[C@H](N)CC3)cn(Cc3cccc4ccccc34)c2c1 [Compound I-519, N-((1r,4r)-4-aminocyclohexyl)-6-carbamimidoyl-1-(naphthalen-1-ylmethyl)-1H-indole-3-carboxamide] | 0 to 25 |

Same assay, conditions: compound at 1 uM; Assay Used: B; read-out: Mar-2 % inhibition at 1 uM

| inhibition at 1 µM [%] | SMILES |
| --- | --- |
| 0 to 25 | N=C(N)c1ccc2cc(C(=O)N[C@H]3CC[C@H](N)CC3)n(CCCc3cccc4ccccc34)c2c1 [Compound I-817] |
